The text below walks through data of US20200231562A1, “NOVEL MACROLIDE ANTIBIOTICS” (HELMHOLTZ-ZENTRUM FÜR INFEKTIONSFORSCHUNG GMBH, priority 2014, published 2020).

In series [1] the test system is methicillin-resistant S. aureus (MRSA). The series can be described thus: Bouillon dilution assay (MIC90). In kind it is cell-based. The settings on record: Staphylococcus aureus, tryptic soy broth, 37° C., 16 h. Here is the method:
(§1) Before incubation, 3 was added in decreasing concentrations ([…] to 12.5 μg/ml). After incubation, the OD600 was measured. The experiment was run in triplicate. Ciprofloxacin was used as a positive control.

Series [2] relates to S. auricularis A. The series is described as follows: Bouillon dilution assay (MIC90). In kind it is cell-based. Conditions: Staphylococcus auricularis, tryptic soy broth, 37° C., 16 h. The protocol: as §1
For series [3], the system named is HUVEC cells. The series can be described thus: Antiproliferative effect (methylene blue staining). Conditions: at a concentration of 100 μM. The class given is cell-based, human. Here is the method: (§2) The human monocytic cell line Mono Mac 6 was cultured in RPMI 1640 medium supplemented with FCS (10%, v/v), penicillin (100 U/ml), streptomycin (100 μg/ml), insulin (10 μg/ml), oxaloacetic acid (1 mM), sodium pyruvate (1 mM), and 1× non-essential amino acids at 37° C. and 5% CO2. A-549 cells (DSM ACC-107) were cultured in DMEM high glucose (4.5 g/l) medium supplemented with FCS (10% v/v), penicillin (100 U/ml) and streptomycin (100 μg/ml) at 37° C. in a 5% CO2 incubator. K-562 (DSM ACC 10) and HeLa cells (DSM ACC 57) were grown in RPMI 1640, whereas cells of HUVEC (ATCC CRL-1730) were cultured in DMEM medium. The respective media were supplemented with ultraglutamine 1 (10 ml/l), gentamicin sulfate (500 μl/l), and FCS (10% v/v).
(§3) The test substances were dissolved in methanol before being diluted in DMEM. The adherent cells were harvested at the logarithmic growth phase after soft trypsinization using 0.25% trypsin in PBS containing 0.02% EDTA. For each experiment, approximately 10,000 cells were seeded with 0.1 ml culture medium per well of the 96-well microplates. […] In case of K-562 cells, the number of viable cells in every well was determined using the CellTiter-Blue1 assay. […] The optical densities were measured at 660 nm in a SUNRISE microplate reader (TECAN).

Series [4] deals with leukemic Mono Mac 6 cells. The series can be described thus: MTT assay, cytotoxic activity. Conditions: incubation 24 or 48 hours. The class given is cell-based, human. The protocol: The cytotoxic activity of gulmirecin A (3) and gulmirecin B (4) against human cells was evaluated in the well-established MTT assay using primary monocytes from human peripheral blood as well as transformed lung epithelial cell A-549 cell and leukemic Mono Mac 6 cells. Furthermore, 3 and 4 were tested against K-562, HUVEC, and HeLa cells.
as §2
Cells (3×10^5 Mono Mac 6, 1×10^5 A-549 cells, or 2×10^6 monocytes per well) were seeded in a 96-well plate in the respective medium (100 μl/well). Monocytes were allowed to adhere for 1.5 hours (37° C., 5% CO2) prior to treatment. […] Then, 20 μl of thiazolyl blue tetrazolium bromide (MTT, 5 mg/ml PBS) were added, and the incubation was continued at 37° C., 5% CO2 until blue staining of the vehicle control. Formazan formation was stopped by adding 100 μl of lysis buffer (SDS, 10%, w/v in 20 mM HCl) and samples were shaken overnight. Absorbance of each well was measured at 570 nm in a Multiskan™ microplate spectrophotometer (Thermo Scientific).

The test system of series [5] is K-562 cells. The series can be described thus: Antiproliferative effect (CellTiter-Blue). The class given is cell-based, human. Conditions: K-562, at a concentration of 100 μM. Here is the method:
as §2, §3

Series [6] has as its system Staphylococcus aureus SG511. The series can be described thus: Agar diffusion assay. The class given is cell-based. The settings on record: 50 μL of 0.5 mg in 1 mL methanol per 7 mm hole, n.a. = no activity observed, read-out: diameter of inhibition zone. The protocol:
(§4) Antimicrobial activities of the gulmirecins were determined in a primary screen against Bacillus subtilis ATCC 6633, Staphylococcus aureus SG511, Staphylococcus auricularis DSM 20609, Mycobacterium vaccae IMET 10670, Pseudomonas aeruginosa K799/61, Escherichia coli SG458, Sporobolomyces salmonicolor SBUG 549, Candida albicans ATCC14053 and Penicillium notatum JP 36. To this end, holes with 7 mm diameter were aseptically punched in the respective agar medium. Subsequently, the agar plates were inoculated with the test organisms. 0.5 mg of every test compound was dissolved in 1 mL of methanol, and 50 μL of this solution was transferred to a single hole. Ciprofloxacin and amphotericin B served as positive controls. After evaporation of the solvent, the agar plates were incubated depending on the growth conditions of the test organisms. […] The test results are shown in Table 6 below, wherein the given values represent the diameters of the respective inhibition zone in the agar diffusion assay.
(In general: A growth-free zone around the sample is the usual read-out of agar diffusion tests.)

In series [7] the test system is Staphylococcus auricularis DSM 20609. The series is described as follows: Agar diffusion assay. The class given is cell-based. The settings on record: DSM20609, 50 μL of 0.5 mg in 1 mL methanol per 7 mm hole, n.a. = no activity observed, read-out: diameter of inhibition zone. The protocol: as §4
Series [8] concerns Mouse fibroblast cells L929 (ACC-2). The series is described as follows: Cytotoxicity (MTT) assay, antiproliferative activity. In kind it is cell-based. The settings on record: 120 h, L929, 5 d incubation. The protocol: (§5) Half maximal inhibitory concentrations (IC50) in μg/ml of disciformycin A (1) and disciformycin B (2) for inhibiting the proliferative activity of human HCT-116 colon carcinoma cells, mouse fibroblast cells L929, and Chinese hamster ovary CHO-K1 cells were determined. Cells were seeded at 6×10^3 cells per well of 96-well plates (Corning CellBind®) in complete medium (180 μl) and directly treated with disciformycin dissolved in DMSO in serial dilution. The compound was tested in duplicate, as well as the internal solvent control. After 5 d incubation, 5 mg/ml MTT in PBS (20 μL) was added per well and it was further incubated for 2 h at 37° C. The medium was then discarded and cells were washed with PBS (100 μl) before adding 2-propanol/10N HCl (250:1, v/v; 100 μl) in order to dissolve formazan granules. The absorbance at 570 nm was measured using a microplate reader (EL808, Bio-Tek Instruments Inc.). The amount of formazan, i.e. relative absorption, is thereby proportional to the number of actively proliferating cells.

Series [9] concerns HCT-116 colon carcinoma cells (ACC-581). Described as above. The class given is cell-based. The settings on record: Homo sapiens, 120 h, HCT-116, 5 d incubation. Here is the method:
as §5

The subject of series [10] is Chinese hamster ovary CHO-K1 cells (ACC-110). The description is as above. In kind it is cell-based. Conditions: Cricetulus griseus, 120 h, CHO-K1, 5 d incubation. The protocol:
as §5

Structures are written as SMILES. In brackets after ≈: the same amount, converted by molar mass.

With `C/C=C(/C)[C@H]1C/C=C(\C)[C@@H](O[C@H]2O[C@H](CO)[C@@H](O)[C@@H]2O)[C@H](OC(=O)CC(C)C)C(=O)C[C@@H](O)[C@H](C)C(=O)O1` [Compound 3, gulmirecin A], the figures for the MIC90 in series [1] and in [2] were 23.1 µM (≈ 12.5 µg/mL) and 22.5 µM (≈ 12.2 µg/mL), respectively. Further, the inhibition of proliferation result in series [3] and in series [5] was “did not inhibit” throughout. Also, in [4], the “cell viability / cytotoxicity (MTT)” value is “no reduction in cell viability at the concentrations required for antibacterial activity”. Further, the zone of inhibition at 25 µg/hole in series [6] is 29 mm; in series [7], 31 mm.

On to `C/C=C(/C)[C@H]1C/C=C(\C)[C@@H](O[C@H]2O[C@H](CO)[C@@H](O)[C@@H]2O)[C@H](OC(=O)CC(C)C)C(=O)C/C=C(/C)C(=O)O1` [Compound 1, disciformycin A], for which the IC50 in series [8] worked out at 29 µg/mL (≈ 55.3 µM); in [9], 13 µg/mL (≈ 24.8 µM); in series [10] it was 16.6 µg/mL (≈ 31.6 µM).

As for `C/C=C(/C)[C@H]1C/C=C(\C)[C@@H](O[C@H]2O[C@H](CO)[C@@H](O)[C@@H]2O)[C@H](O)C(=O)CC[C@H](C)C(=O)O1` [Compound 4, gulmirecin B], the inhibition of proliferation result in series [3] and in [5] was “did not inhibit” in each case. Also, the “cell viability / cytotoxicity (MTT)” value in [4] was “no reduction in cell viability at the concentrations required for antibacterial activity”. Also, the values for the zone of inhibition at 25 µg/hole in [6] and in series [7] were 17 mm and 19 mm, respectively.

For orientation: MIC90 means the lowest concentration that inhibits either 90% of growth or 90% of the strains tested, depending on the study. Read a low MIC90 as greater potency. The zone of inhibition is the extent of the growth-free halo in a diffusion test. For orientation: IC50 means the concentration that inhibits the measured activity by half.
